{"source": "patent US8057829B2", "about": "“Methods for repelling insects using sesquiterpene hydrocarbons and their derivatives” (Sterling International Inc., priority 2008, dated 2011)", "key": {"[1]": {"system": "housefly (Musca domestica) antenna", "test": "GC-EAD antennal response, housefly", "details": "female housefly antenna; synthetic mixture, about 100 ng of each compound; FIG. 3", "text": "The sesquiterpene hydrocarbons and their derivatives disclosed herein have been identified as suitable insect repellents by testing via a gas chromatographic-electroantennographic detection (GC-EAD) method as described in Example 1 below. This method can be used to efficiently screen for potentially behaviorally active compounds, including insect repellents, attractants, deterrents, or attraction-inhibitors from complex natural sources or synthetic mixtures.\nThe GC-EAD responses of the female housefly antenna were tested on a synthetic mixture of 1-octen-3-ol, a known attractant used as a positive control, and representative sesquiterpene hydrocarbons and derivatives, (+)-longipinene, (−)-isolongifolene, (+)-longifolene, β-caryophyllene, α-humulene, and isolongifolenone, with about 100 ng of each compound in the mixture.\nThe GC-EAD responses of the male housefly antenna were tested on a synthetic mixture of 1-octen-3-ol, and two representative sesquiterpenes, β-caryophyllene and isocaryophyllene, with about 100 ng of each compound in the mixture.\n(§1) The following procedures were employed to test the EAD response of an insect antenna to a repellent compound. The GC-EAD technique provides an efficient tool for screening behaviorally active repellents. Several synthetic mixtures of potential insect repellent candidates, mostly sesquiterpene hydrocarbons and derivatives, were analyzed in splitless mode using a Varian CP-3800 GC equipped with a polar column (Innowax; 1.0 μm film thickness, 30 m×0.53 mm ID; J & W Scientific), and a 1:1 effluent splitter that allowed simultaneous flame ionization detection (FID) and EAD of the separated volatile compounds. Helium was used as the carrier gas, and the injector temperature was 220° C. The column temperature was 50° C. for 2 min, rising to 240° C. at 10° C./min, then held for 10 min. The outlet for the EAD was held in a humidified air stream flowing at 0.5 liter/min. over an antennal preparation. A glass capillary indifferent electrode filled with Beadle-Ephrussi Ringer, and grounded via a silver wire, was inserted into the severed insect's head with the antennae. A similar recording electrode connected to a high-impedance DC amplifier with automatic baseline drift compensation was placed in contact with the distal end of one antenna (Zhang et al., Chemoecology, 10:69-80 (2000)). The antennal signals were stored and analyzed on a PC equipped with a serial IDAC interface box and the program EAD ver. 2.5 (Syntech, Hilversum, The Netherlands). The compound 1-octen-3-ol (known attractant for many flies and mosquitoes) was included in most of the synthetic mixtures, as a positive control. The results of the experiments are shown in FIGS. 1-10 and described above."}, "[2]": {"system": "female mosquito Culex pipiens antenna", "test": "GC-EAD antennal response, Culex pipiens", "details": "female Culex pipiens antennae; about 100 ng of each compound; responses weak, but repeatable; FIGS. 7 and 8", "method": "The GC-EAD responses of the female mosquito Culex pipiens antenna were tested on a synthetic mixture of 1-octen-3-ol, and two sesquiterpene hydrocarbons, β-caryophyllene and isocaryophyllene, with about 100 ng of each compound in the mixture.\nThe GC-EAD responses of the female mosquito Culex pipiens antenna were tested on a synthetic mixture of 1-octen-3-ol, and representative sesquiterpene hydrocarbons and derivatives including (+)-longipinene, (−)-isolongifolene, (+)-longifolene, β-caryophyllene, and isolongifolenone, with about 100 ng of each compound in the mixture.\nAntennal responses were weak, but repeatable, thus are considered to be true responses.\nas §1"}, "[3]": {"system": "female antennae of sand fly Phlebotomus papatasi and mosquitoes Aedes aegypti, Anopheles gambiae, Anopheles stephensi", "test": "GC-EAD responses of sand fly and three mosquitoes to synthetic mixtures", "details": "about 100 ng of each compound, on one or more of the sand fly or the mosquitoes, FIGS. 9 and 10", "method": "The GC-EAD responses of female antennae of the sand fly, Phlebotomus papatasi, and three species of mosquitoes, Aedes aegypti, Anopheles gambiae, and anopheles stephensi were tested on a synthetic mixture of 1-octen-3-ol, six sesquiterpene hydrocarbons including (+)-longipinene, (−)-isolongifolene, (+)-longifolene, β-caryophyllene, isolongifolenone, and α-humulene, and several known insect repellents including ZE-nepetalactone, EZ-nepetalactone, with about 100 ng of each compound in the mixture.\nThe GC-EAD responses of female antennae of the sand fly, Phlebotomus papatasi, and three species mosquitoes, Aedes aegypti, Anopheles gambiae, and anopheles stephensi were tested on a synthetic mixture of 1-octen-3-ol, linalool, β-caryophyllene oxide, isocaryophyllene, β-caryophyllene, and α-humulene, and DEET, with about 100 ng of each compound in the mixture.\nas §1"}, "[4]": {"system": "antennae of housefly, sand fly, and mosquitoes (Aedes aegypti, Aedes increpitus, Anopheles gambiae)", "test": "GC-EAD antennal responses to SPME samples of patchouli essential oil", "details": "component of patchouli essential oil SPME sample; response by one or more of the insects; FIG. 2", "method": "as §1, with “control.” for “control. The results of the experiments are shown in FIGS. 1-10 and described above.”"}, "Aedes aegypti [5]": {"system": "Aedes aegypti", "test": "Y-tube olfactometer behavioral bioassay (spatial repellency)", "type": "in vivo", "method": "(§2) Aegypti and An. stephensi, and one species of sand fly, P. papatasi. Both the mosquitoes and the sand flies used in the study were from colonies maintained at the Walter Reed Army Institute of Research, Department of Entomology, Silver Spring, Md. This Y-tube bioassay system, equipped with CO2-enriched air (ca. 1 l/min) as an attractant, was made from three clear acrylic tubes (4″ diameter; 12″ length) with symmetrical 120° angles among the three tube arms; and a screen butterfly valve on the top part of the bottom releasing tube. These spatial repellency tests were carried out during 8:00 am-12:00 pm (photophase) time period for Ae. aegypti and 1:00-5:00 pm (shifted scotophase) time period for the species of night-flying mosquitoes and sand fly in a temperature and humidity controlled testing room (23-25° C. and 20-40% RH). Female mosquitoes or sand flies were stored at ˜25-26° C., 50-89% RH, 12:12 hr. (L/D), fed with 10% sucrose solution before testing. The candidate chemical (individual or mixture) dispenser and a blank control were placed in the upper left or right arm of the Y-tube before releasing 25-40, 6 to 10 day-old female mosquitoes (or 3 to 10 day-old sand flies) into the bottom tube via a small hole. After a 30-60 sec acclimation period, the butterfly screen valve (door) on the top of the bottom tube was opened. After 10 min., the valve was closed and the numbers of mosquitoes or sand flies in each arm (including the bottom tube) were counted. In order to minimize the position effect, the same experiment was repeated once with the treatment and blank control arms shifted using a new (clean) Y-tube olfactometer and a new batch of mosquitoes/sand flies. Data from these two replicates were pooled for χ2 goodness of fit test (df=1) between the treatment and blank control."}, "Anopheles stephensi [6]": {"system": "Anopheles stephensi", "test": "Y-tube olfactometer behavioral bioassay (spatial repellency)", "type": "in vivo", "method": "as §2"}, "Aedes aegypti [7]": {"system": "Aedes aegypti", "test": "K&D module behavioral bioassay (topical repellency, biting)", "type": "in vivo", "method": "(§3) The bioassays were conducted with a six-cell in vitro K&D module system, as disclosed in Klun and Debboun, J. Med. Entomol. 37:177-181 (2000), loaded with an “artificial blood” (CPDA+ATP) solution.\n(§4) Clove essential oil, patchouli oil, and EAD-active potential repellents, β-caryophyllene, isocaryophyllene, (+)-longifolene, and their 1:1:1 mixture, plus α-guaiene, caryophyllene oxide, and a β-caryophyllene ketone, were tested using the six-cell in vitro K&D module system (Klun and Debboun, J. Med. Entomol. 37:177-181 (2000)) loaded with an “artificial blood” (CPDA+ATP) solution on both Ae. aegypti and An. stephensi in a dose-response fashion. The K&D in vitro assay system has three components: (1) a Plexiglas™ 29.7 cm.×7.1 cm K&D module composed of six adjacent cells, each designed to hold mosquitoes and each having a rectangular 3×4 cm floor hole that is opened and closed by a sliding door; (2) a Plexiglas™ six-well 29.7 cm×7.1 cm water water-bath warmed (38° C.) reservoir with six 3×4 cm wells designed to match the sliding-door openings of the K&D module base and to contain 6 mL warmed “artificial blood” wells covered with a collagen membrane; and (3) a 29.7 cm×7.1 cm'0.4 cm Teflon® separator having six rectangular openings like the K&D module. The K&D module was connected to a constant temperature water circulator at 38° C. The cells were covered with an Edicol collagen membrane strip. Nylon organdy strips with ink cell patterns were numbered and randomly treated with […] of the tested chemical in ethanol (ethanol alone as blank control), plus DEET (ca. 10 μg/cm^2) as a positive control. This treated nylon organdy strip was placed on top of the collagen membrane. The upper section of the K & D module with the six cells each containing 5 mosquitoes (5-10 d old, starved for 24 hr before testing) was placed on top of the nylon strip. The doors to the cells were slid open so the mosquitoes could be free to feed on the “artificial blood” via the collagen membrane if they were hungry. The experiments were allowed to run for 3 minutes, and the number of mosquitoes feeding (biting) in each cell was recorded. After each experiment, the nylon and collagen strips were removed. The CPDA+ATP solution was removed and allowed to dry prior to starting the next experiment. The experiments on each chemical and each mosquito species were run three times before the bottom section with circulated water was cleaned prior to use again."}, "Anopheles stephensi [8]": {"system": "Anopheles stephensi", "test": "K&D module behavioral bioassay (topical repellency, biting)", "type": "in vivo", "method": "as §3, §4"}, "[9]": {"details": "Aedes aegypti females, release rate per chemical (1-60 mg/day), 10 min"}, "[10]": {"details": "Anopheles stephensi females, release rate per chemical (β-Caryophyllene 10 mg/day), 10 min"}, "[11]": {"details": "10 μg/cm^2, DEET values are the positive control run with the chemical"}}}
{"smiles": "CC1=CC[C@@H]2[C@H]3[C@H]1[C@@]2(C)CCCC3(C)C", "note": "[(+)-longipinene, (+)-Longipinene]", "values": [{"measurement": "GC-EAD antennal activity", "setting": "[1]", "value": "active"}, {"measurement": "GC-EAD antennal activity", "setting": "[2]", "value": "active"}, {"measurement": "GC-EAD antennal activity", "setting": "[3]", "value": "antennally active"}]}
{"smiles": "CC1(C)C2=CC(=O)CC(C)(C)[C@]23CC[C@H]1C3", "note": "[isolongifolenone, reference compound]", "values": [{"measurement": "GC-EAD antennal activity", "setting": "[1]", "value": "inactive"}, {"measurement": "GC-EAD antennal activity", "setting": "[3]", "value": "does not appear to have elicited antennal activity"}]}
{"smiles": "C=C1C2CCC3(C)C(C2)C(C)CCC13C", "note": "(stereo not shown) [seychellene]", "values": [{"measurement": "GC-EAD antennal activity", "setting": "[4]", "value": "elicited EAD-activity"}]}
{"smiles": "C=C(C)[C@@H]1CCC(C)=C2CC[C@H](C)[C@@H]2C1", "note": "[α-Bulnesene, α-bulnesene]", "values": [{"measurement": "Number of mosquitoes in each arm: Blank", "setting": "Aedes aegypti [5]; [9]", "value": 35}, {"measurement": "Number of mosquitoes in each arm: Bottom", "setting": "Aedes aegypti [5]; [9]", "value": 24}, {"measurement": "Number of mosquitoes in each arm: Repellent", "setting": "Aedes aegypti [5]; Aedes aegypti females, release rate per chemical (1-60 mg/day), 10 min, two replicates pooled", "value": 11}, {"measurement": "SAI (Spatial Activity Index)", "setting": "Aedes aegypti [5]; Aedes aegypti, (Nc − Nt)/(Nc + Nt), −1 to 1, zero indicating no response", "value": 0.52}, {"measurement": "Number of mosquitoes in each arm: Repellent", "setting": "Anopheles stephensi [6]; Anopheles stephensi females, release rate per chemical (1-60 mg/day; β-Caryophyllene 10 mg/day), 10 min", "value": 13}, {"measurement": "Number of mosquitoes in each arm: Blank", "setting": "Anopheles stephensi [6]; [10]", "value": 33}, {"measurement": "Number of mosquitoes in each arm: Bottom", "setting": "Anopheles stephensi [6]; [10]", "value": 25}, {"measurement": "SAI (Spatial Activity Index)", "setting": "Anopheles stephensi [6]; Anopheles stephensi, β-Caryophyllene 10 mg/day", "value": 0.43}, {"measurement": "GC-EAD antennal activity", "setting": "[4]", "value": "elicited EAD-activity"}, {"measurement": "% of biting (±SE) (N = 3)", "setting": "Aedes aegypti [7]; [11]", "value": "73 ± 7", "unit": "b %"}, {"measurement": "% of biting (±SE) (N = 3)", "setting": "Aedes aegypti [7]; 100 μg/cm^2", "value": "0 ± 0", "unit": "a %"}, {"measurement": "% of biting (±SE) (N = 3)", "setting": "Aedes aegypti [7]; 500 μg/cm^2", "value": "0 ± 0", "unit": "a %"}, {"measurement": "% of biting (±SE) (N = 3)", "setting": "Aedes aegypti [7]; 1000 μg/cm^2", "value": "0 ± 0", "unit": "a %"}, {"measurement": "% of biting (±SE) (N = 3)", "setting": "Anopheles stephensi [8]; [11]", "value": "87 ± 7", "unit": "b %"}, {"measurement": "% of biting (±SE) (N = 3)", "setting": "Anopheles stephensi [8]; 100 μg/cm^2", "value": "0 ± 0", "unit": "a %"}, {"measurement": "% of biting (±SE) (N = 3)", "setting": "Anopheles stephensi [8]; 500 μg/cm^2", "value": "0 ± 0", "unit": "a %"}, {"measurement": "% of biting (±SE) (N = 3)", "setting": "Anopheles stephensi [8]; 1000 μg/cm^2", "value": "0 ± 0", "unit": "a %"}]}
{"smiles": "CC1=CCC2CC3C(C)CCC13C2(C)C", "note": "(stereo not drawn) [α-patchoulene, α-Patchoulene]", "values": [{"measurement": "GC-EAD antennal activity", "setting": "[4]", "value": "elicited EAD-activity"}]}
{"smiles": "CC1CCC2=C1CC1CCC2(C)C1(C)C", "note": "(stereo not drawn) [β-patchoulene, β-Patchoulene]", "values": [{"measurement": "GC-EAD antennal activity", "setting": "[4]", "value": "elicited EAD-activity"}]}
